# Test results from patent publication EP4721758A1, “NOVEL MEDICINE FOR TREATING OSTEOSARCOMA” (Japanese Foundation For Cancer Research, priority 2023, dated 2024).
# Legend:
# osteosarcoma cells [1] = assay: Cell viability after 1 µM obatoclax or navitoclax (CellTiter-Glo); assay type: cell-based, human; details: 72 hours, 11 types of osteosarcoma cells, Fig. 1B
# Method: Among these five compounds, obatoclax, a pan-BH3 mimetic, was further investigated. Specifically, the osteosarcoma cells (the above described 11 types of osteosarcoma cells) were seeded in triplicate at a density of 2000 cells/well on 96-well plates (Greiner) or type I collagen-coated plates (IWAKI) and cultured for at least 24 hours. The osteosarcoma cells (i.e., the above described 11 types) were then treated with 1 µ(micro)M obatoclax for 72 hours, after which cell viability was measured using the CellTiter-Glo assay reagent.
# osteosarcoma cells [2] = assay: Inhibitor library drug screening, cell viability (CellTiter-Glo); assay type: cell-based, human; details: nine osteosarcoma cell lines and two PDC, 72 hours, heatmap Fig. 1A
# Method: The nine human osteosarcoma cell lines (MG-63 cells, NY cells, HOS cells, HuO9 cells, HuO-3N1 cells, SJSA-1 cells, NOS-1 cells, NOS-10 cells, and G-292 clone A141B1 (G-292) cells) were purchased from the American Type Culture Collection, the RIKEN BioResource Research Center, or the Japanese Collection of Research Bioresources Cell Bank (JCRC) and used at lower passage numbers.
# Specifically, • MG-63 cells, NY cells, and HOS cells were cultured in 96-well plates using MEM (Wako) comprising 10% FBS (CORNING), 1% non-essential amino acid solution (Wako), and 100 µ(micro)g/mL kanamycin (MEIJI), • HuO9 cells, HuO-3N1 cells, SJSA-1 cells, NOS-1 cells, and NOS-10 cells were cultured in 96-well plates using RPMI-1640 medium (Wako) comprising 10% FBS and 100 µ(micro)g/mL kanamycin. • G-292 clone A141B1 (G-292) cells were cultured in 96-well plate using McCoy's 5a medium comprising 10% FBS, • Sa-xeno-147 and Sa-xeno-184 cell lines were developed from patient-derived xenograft tumors and were cultured in collagen-coated dishes with RPMI 1640/Ham's F12 (1:1) medium comprising 15% FBS, 20 mM HEPES, and antibiotic-antimycotic solution (Sigma-Aldrich). Cells were cultured at 37°C and 5% CO2.
# Cells were seeded in triplicate in 96-well plates (Greiner) or type I collagen-coated plates (IWAKI) at a density of 2000 cells/well and cultured for at least 24 h. After 72 hours of incubation with any of the 96 compounds of the library of the inhibitors, cells were incubated with CellTiter-Glo reagent (Promega) for 2 minutes on a Titramax 100 plate shaker (Heidolph), and after 10 minutes of equilibration, cell viability assays of each osteosarcoma cell were performed by measuring luminescence using a Tristar LB941 multimode microplate reader (Berthold Technologies). The cell viability was calculated as a ratio of the DMSO control to evaluate their effects on osteosarcoma cell proliferation (n=2).
# topoisomerase = details: cited from earlier work
# Mcl-1 = Mcl-1 (Homo sapiens, UniProt Q07820); details: cited from earlier work
# Sequence of Mcl-1 (Q07820 whole entry): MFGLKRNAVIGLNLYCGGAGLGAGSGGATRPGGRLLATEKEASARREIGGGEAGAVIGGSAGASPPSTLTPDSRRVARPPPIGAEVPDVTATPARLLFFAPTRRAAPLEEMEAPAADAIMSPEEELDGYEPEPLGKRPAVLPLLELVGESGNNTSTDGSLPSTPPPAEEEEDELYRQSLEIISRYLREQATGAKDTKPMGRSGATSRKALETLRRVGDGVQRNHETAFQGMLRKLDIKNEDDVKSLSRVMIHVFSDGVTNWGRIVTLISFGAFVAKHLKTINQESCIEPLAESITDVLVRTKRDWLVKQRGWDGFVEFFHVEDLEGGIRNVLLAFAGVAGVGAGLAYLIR
smiles,measurement,setting,value
CC1(C)CCC(c2ccc(Cl)cc2)=C(CN2CCN(c3ccc(C(=O)NS(=O)(=O)c4ccc(N[C@H](CCN5CCOCC5)CSc5ccccc5)c(S(=O)(=O)C(F)(F)F)c4)cc3)CC2)C1 [navitoclax],cell viability,osteosarcoma cells [1],little effect on osteosarcoma cell proliferation
CCc1c2c(nc3ccc(O)cc13)-c1cc3c(c(=O)n1C2)COC(=O)[C@]3(O)CC [SN-38],osteosarcoma cell proliferation (cell viability),osteosarcoma cells [2],extensive inhibition of osteosarcoma cell proliferation
same,activity relative to irinotecan,topoisomerase,1000 times
Cc1nn(C)c(COc2ccc(N3CCN(S(=O)(=O)N(C)C)CC3)cc2)c1-c1cccc2c(CCCOc3cccc4ccccc34)c(C(=O)O)n(CCN3CCOCC3)c12 [A-1210477],selectivity than other Bcl-2 family members,Mcl-1,≥ 100 fold
